# In patent US8785481B2, “Ether benzotriazole derivatives” (Merck Sharp & Dohme Corp., priority 2010, dated 2014):
# Target: T1, recombinant human mGluR2 (Homo sapiens, UniProt Q14416)
# T1 construct: expressed in transfected cells
# Test: FLIPR Ca2+ mobilization assay, potentiation of glutamate (EC20) response
# Type: cell-based
# Settings: CHO dhfr- cells expressing human mGluR2 and Gα16, EC20 glutamate (900 nM)
# Protocol: Potencies are determined as follows. The compounds of the present invention may be tested in a fluorescence laser imaging plate reader (FLIPR) based assay. This assay is a common functional assay to monitor Ca^2+ mobilization in whole cells expressing recombinant receptor coupled with a promiscuous G-protein. CHO dhfr- cells stably expressing recombinant human mGluR2 and Gα16 loaded with Fluo-4 AM (Invitrogen, Carlsbad Calif.) are treated with varying concentrations of compounds and the Ca^2+ response is monitored on a FLIPR384 (Molecular Devices, Sunnydale Calif.) for agonist activity. The potentiation response is monitored after a subsequent addition of an EC20 concentration of glutamate (900 nM). The maximum calcium response at each concentration of compound for agonism or potentiation are plotted as dose responses curves fitted with a four parameters logistic equation giving EC50 and Hill coefficient using the iterative non linear curve fitting software program.
# T1 sequence (Q14416 19-872): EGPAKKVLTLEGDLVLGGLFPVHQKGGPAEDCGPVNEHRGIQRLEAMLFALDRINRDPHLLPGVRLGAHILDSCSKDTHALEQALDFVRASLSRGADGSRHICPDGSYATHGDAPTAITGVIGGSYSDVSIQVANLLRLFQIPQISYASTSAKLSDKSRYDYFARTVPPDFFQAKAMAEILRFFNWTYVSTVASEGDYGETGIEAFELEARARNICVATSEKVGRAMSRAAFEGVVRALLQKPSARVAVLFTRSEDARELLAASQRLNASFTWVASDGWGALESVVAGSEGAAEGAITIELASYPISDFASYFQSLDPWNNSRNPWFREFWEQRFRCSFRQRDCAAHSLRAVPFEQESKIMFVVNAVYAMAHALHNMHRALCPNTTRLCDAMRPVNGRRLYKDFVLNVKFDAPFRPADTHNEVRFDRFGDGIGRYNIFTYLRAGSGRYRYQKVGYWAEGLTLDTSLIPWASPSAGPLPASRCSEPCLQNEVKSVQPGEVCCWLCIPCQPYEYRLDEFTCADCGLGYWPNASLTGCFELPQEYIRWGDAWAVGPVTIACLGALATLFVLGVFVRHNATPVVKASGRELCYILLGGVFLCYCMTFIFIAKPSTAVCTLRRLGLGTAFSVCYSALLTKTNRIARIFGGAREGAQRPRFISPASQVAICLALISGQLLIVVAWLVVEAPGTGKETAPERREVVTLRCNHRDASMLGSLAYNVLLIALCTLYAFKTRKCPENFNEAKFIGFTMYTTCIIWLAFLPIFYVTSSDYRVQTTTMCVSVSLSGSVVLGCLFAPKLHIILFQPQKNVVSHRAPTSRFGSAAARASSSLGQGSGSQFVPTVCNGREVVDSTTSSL
row,EC50 [nM],SMILES
1,20,"CC(C)(C)OC(=O)N1CCC(COc2ccc3c(nnn3CC3CC3)c2Br)C1 (centres unmarked) [Example 4-67, tert-butyl 3-({[4-bromo-1-(cyclopropylmethyl)-1H-benzotriazol-5-yl]oxy}methyl) pyrrolidine-1-carboxylate]"
2,9,"FC(F)(F)c1c(OCc2ccccc2)ccc2c1nnn2CC1CC1 [Example 11-1, 5-(Benzyloxy)-1-(cyclopropylmethyl)-4-(trifluoromethyl)-1H-benzotriazole]"
3,188,"C[C@H](O)C(=O)N1CCC(COc2ccc3c(nnn3CC3CC3)c2Br)CC1 [Example 4-65, (2S)-1-[4-({[4-bromo-1-(cyclopropylmethyl)-1H-benzotriazol-5-yl]oxy}methyl)piperidin-1-yl]-1-oxopropan-2-ol]"
4,65,"CC(C)(C)Cn1nnc2c(Br)c(OCc3ccccc3Cl)ccc21 [Example 4-45, 4-bromo-5-[(2-chlorobenzyl)oxy]-1-(2,2-dimethylpropyl)-1H-benzotriazole]"
5,373,"CC(C)[C@@H](C)n1nnc2c(Br)c(O)c(Br)cc21 [Example 2-4, 4,6-dibromo-1-[(1R)-1,2-dimethylpropyl]-1H-benzotriazol-5-ol]"
6,41,"CC(C)(C)Cn1nnc2c(Br)c(OCc3ncccc3F)ccc21 [Example 4-42, 4-bromo-1-(2,2-dimethyl-propyl)-5-[(3-fluoropyridin-2-yl)methoxy]-1H-benzotriazole]"
7,93,"COc1ccc2c(nnn2CC2CCCC2)c1Br [Example 1-3, 4-bromo-1-(cyclopentylmethyl)-5-methoxy-1H-benzotriazole]"
8,521,"CC(C)(C)Cn1nnc2c(Br)c(OCc3ncccn3)ccc21 [Example 4-7, 4-bromo-1-(2,2-dimethyl-propyl)-5-(pyrimidin-2-ylmethoxy)-1H-benzotriazole]"
9,10,"COc1cccc(COc2ccc3c(nnn3CC3CC3)c2Br)n1 [Example 6-1, 4-Bromo-1-(cyclopropylmethyl)-5-[(6-methoxypyridin-2-yl)methoxy]-1H-benzotriazole]"
10,60,"C=CCOc1ccc2c(nnn2CC2CC2)c1Br [Example 10-120, 4-bromo-1-(cyclopropylmethyl)-5-(prop-2-en-1-yloxy)-1H-benzotriazole]"
11,32,"CCOc1ccc2c(nnn2CC(C)(C)C)c1Br [Example 1-4, 4-bromo-1-(2,2-dimethylpropyl)-5-ethoxy-1H-benzotriazole]"

# Continued, compound first:
row,SMILES,EC50 [nM]
1,"CC(Oc1ccc2c(nnn2CC(C)(C)C)c1Br)c1ccccc1 (centres unmarked) [Example 3-15, 4-bromo-1-(2,2-dimethylpropyl)-5-(1-phenylethoxy)-1H-benzotriazole]",91
2,"Cc1cnc(C#N)c(-c2cccc(COc3ccc4c(nnn4CC(C)(C)C)c3Br)c2)c1 [Example 3-26, 3-[3-({[4-bromo-1-(2,2-dimethylpropyl)-1H-benzotriazol-5-yl]oxy}methyl)phenyl]-5-methylpyridine-2-carbonitrile]",16
3,"Brc1c(OCCn2cccn2)ccc2c1nnn2CC1CC1 [Example 10-275, 4-bromo-1-(cyclopropylmethyl)-5-[2-(1H-pyrazol-1-yl)ethoxy]-1H-benzotriazole]",214
4,"FC(F)CN1CCC(Oc2ccc3c(nnn3CC3CC3)c2Br)CC1 [Example 10-47, 4-bromo-1-(cyclopropylmethyl)-5-{[1-(2,2-difluoroethyl)piperidin-4-yl]oxy}-1H-benzotriazole]",424
5,"N#CCOc1ccc2c(nnn2CC2CC2)c1Br [Example 5-1, {[4-Bromo-1-(cyclopropylmethyl)-1H-benzotriazol-5-yl]oxy}acetonitrile]",281
6,"O=C1CCC(Oc2ccc3c(nnn3CC3CC3)c2Br)CC12CC2 (centres unmarked) [Example 10-171, 7-{[4-bromo-1-(cyclopropyl-methyl)-1H-benzotriazol-5-yl]oxy}spiro[2.5]octan-4-one]",87
7,"CC(C)(C)C(=O)COc1ccc2c(nnn2CC2CC2)c1Br [Example 7-1, 1-{[4-Bromo-1-(cyclopropylmethyl)-1H-benzotriazol-5-yl]oxy}-3,3-dimethylbutan-2-one]",34
8,"CC(C)(C)/C(COc1ccc2c(nnn2CC2CC2)c1Br)=N/O [Example 9-1, 1-{[4-Bromo-1-(cyclopropylmethyl)-1H-benzotriazol-5-yl]oxy}-N-hydroxy-3,3-dimethylbutan-2-imine]",84
9,"CC(C)(C)Cn1nnc2c(Br)c(OCc3cccc(N4CCCCC4)n3)ccc21 [Example 4-27, 4-bromo-1-(2,2-dimethylpropyl)-5-[(6-piperidin-1-ylpyridin-2-yl)methoxy]-1H-benzotriazole]",288
10,"FC(F)(F)CN1CCN(CCOc2ccc3c(nnn3CC3CC3)c2Br)CC1 [Example 10-220, 4-bromo-1-(cyclopropylmethyl)-5-{2-[4-(2,2,2-trifluoroethyl)piperazin-1-yl]ethoxy}-1H-benzotriazole]",222
11,"CC(C)(C)Cn1nnc2c(Br)c(OCc3cccc(-c4ccc(O)c(C(=O)O)c4)c3)ccc21 [Example 3-3, 3′-({[4-bromo-1-(2,2-dimethylpropyl)-1H-benzotriazol-5-yl]oxy}methyl)-4-hydroxy-biphenyl-3-carboxylic acid]",3.5
12,"Brc1c(OCc2cscn2)ccc2c1nnn2CC1CC1 [Example 10-56, 4-bromo-1-(cyclopropylmethyl)-5-(1,3-thiazol-4-ylmethoxy)-1H-benzotriazole]",150
13,"CC(C)(C)OC(=O)N1CCC(COc2ccc3c(nnn3CC3CC3)c2Cl)CC1 [Example 4-63, tert-butyl 4-({[4-chloro-1-(cyclopropylmethyl)-1H-benzotriazol-5-yl]oxy}methyl) piperidine-1-carboxylate]",34
14,"Brc1c(OCC2CCC2)ccc2c1nnn2CC1CC1 [Example 10-140, 4-bromo-5-(cyclobutylmethoxy)-1-(cyclopropylmethyl)-1H-benzotriazole]",39
15,"CC(C)(C)Cn1nnc2c(Br)c(OCc3cccc4ccnn34)ccc21 [Example 4-5, 4-bromo-1-(2,2-dimethylpropyl)-5-(pyrazolo[1,5-a]pyridin-7-ylmethoxy)-1H-benzotriazole]",42
16,"CC1(COc2ccc3c(nnn3CC3CC3)c2C(F)(F)F)CCN(C(=O)CO)CC1 [Example 4-79, 2-[4-({[1-(cyclopropylmethyl)-4-(trifluoromethyl)-1H-benzotriazol-5-yl]oxy}methyl)-4-methyl-piperidin-1-yl]-2-oxoethanol]",7
17,"Brc1c(OCC2COCCO2)ccc2c1nnn2CC1CC1 (centres unmarked) [Example 10-73, 4-bromo-1-(cyclopropylmethyl)-5-(1,4-dioxan-2-ylmethoxy)-1H-benzotriazole]",415
18,"CC(C)(C)C(O)COc1ccc2c(nnn2CC2CC2)c1Br (racemic) [Example 8-1, (±)-1-{[4-Bromo-1-(cyclopropylmethyl)-1H-benzotriazol-5-yl]oxy}-3,3-dimethylbutan-2-ol]",72
19,"CCOc1ccc2c(nnn2CC2CC2)c1Br [Example 10-253, 4-bromo-1-(cyclopropylmethyl)-5-ethoxy-1H-benzotriazole]",530
20,"CC(C)(C)Cn1nnc2c(Br)c(OCc3cccc(-c4c[nH]nc4C#N)c3)ccc21 [Example 3-34, 4-[3-({[4-bromo-1-(2,2-dimethylpropyl)-1H-benzotriazol-5-yl]oxy}methyl)phenyl]-1H-pyrazole-3-carbonitrile]",49
21,"COc1ccc2c(nnn2CCCC(F)(F)F)c1Br [Example 1-11, 4-bromo-5-methoxy-1-(4,4,4-trifluorobutyl)-1H-benzotriazole]",51
